pEC50: −log10 of the molar value. Where two headings read alike, the source gives them in different places.

Broadly, the pEC50 is the negative decadic logarithm of the EC50, by convention in mol/L.

For one assay, the system named is MCF-7BUS cells. The assay is described as follows: E-screen assay (MCF-7BUS cell proliferation, WST-1). The format is cell-based, Human. The conditions noted are these: for pEC50: Homo sapiens, MCF7/BUS, 144 h, read-out: E-screen EC50; for E-screen Maximum induction (%): percentage of the maximum proliferation effect of tested compound to that of E2, 6 days exposure; for E-screen Relative potency: ratio of EC50 of E2 to that of test compound. The protocol:
(§1) Cell culture. Human MCF-7BUS breast adenocarcinoma cells and MVLN cells were cultured in 100-mm culture dishes in a humidified atmosphere of 5% CO2 at 37°C. Cells were maintained in Dulbecco’s modified Eagle’s medium (DMEM)/F-12 (Hyclone, Logan, UT, USA) containing 10% fetal bovine serum, 100 U/mL streptomycin-penicillin, 2 mM L-glutamine, and 1% insulin-transferrin-selenium supplement (all from Gibco, Grand Island, NY, USA).
E-screen assay. MCF-7BUS cells were kindly provided by A.M. Soto and C. Sonnenschein (Tufts University School of Medicine, Boston, MA, USA). In response to ERα agonists, the mitotic effect leads to the proliferation of MCF-7BUS cells. […] Cells were trypsinized and plated into the interior 60 wells of 96-well plates at the density of 3,000 cells/well. Before each experiment, cells were starved in steroid-free (SF) medium for 48 hr to minimize the basal hormonal activity during assays. SF medium consisted of phenol red–free DMEM/F-12 (Hyclone) supplemented with 5% dextran-charcoal-treated fetal bovine serum (Hyclone), 100 U/mL streptomycin-penicillin, and 2 mM L-glutamine. […] We used a WST-1 proliferation kit (Roche Diagnostics, Mannheim, Germany) to assess proliferation after 6 days of exposure according to the kit instructions. The WST-1 assay is based on the enzymatic cleavage of the tetrazolium salt WST-1 to formazan by cellular mitochondrial dehydrogenases present in viable cells. The absorbance of the WST-1 solution was detected by a microplate reader (Varioskan Flash, Thermo Fisher Scientific, Waltham, MA, USA) at 450 nm, with the reference wave length at 690 nm. The cell proliferation effect was calculated from the solvent control (0.1% ethanol)-corrected absorbance and expressed as the percentage of maximal absorbance of the positive control. Three replicates were used in each experiment.
(§2) The concentration–response analyses were performed with four-parameter logistic curve regression analysis according to the following formula:
(§3) y = minimum + (maximum – minimum) ÷ [1 + (x/EC50)^Hill slope], [1]
(§4) where y is the response value, x is the log concentration of the test compound, and EC50 is the concentration that induces half of the maximum proliferation effect or luciferase activity.
EC50 values were calculated from this nonlinear regression model. EC20 were calculated as […]
(Tetrazolium dyes change colour on reduction, which living cells bring about.)

For a further assay, the target named is T1, ER (Homo sapiens, UniProt P03372).
T1 construct: This cell line was stably transfected with the luciferase reporter gene and estrogen-responsive element derived from the Xenopus vitellogenin A2 gene; endogenous in cells; host or cells: MVLN cells (provided by J.P. Giesy)
T1 sequence (P03372 1-595): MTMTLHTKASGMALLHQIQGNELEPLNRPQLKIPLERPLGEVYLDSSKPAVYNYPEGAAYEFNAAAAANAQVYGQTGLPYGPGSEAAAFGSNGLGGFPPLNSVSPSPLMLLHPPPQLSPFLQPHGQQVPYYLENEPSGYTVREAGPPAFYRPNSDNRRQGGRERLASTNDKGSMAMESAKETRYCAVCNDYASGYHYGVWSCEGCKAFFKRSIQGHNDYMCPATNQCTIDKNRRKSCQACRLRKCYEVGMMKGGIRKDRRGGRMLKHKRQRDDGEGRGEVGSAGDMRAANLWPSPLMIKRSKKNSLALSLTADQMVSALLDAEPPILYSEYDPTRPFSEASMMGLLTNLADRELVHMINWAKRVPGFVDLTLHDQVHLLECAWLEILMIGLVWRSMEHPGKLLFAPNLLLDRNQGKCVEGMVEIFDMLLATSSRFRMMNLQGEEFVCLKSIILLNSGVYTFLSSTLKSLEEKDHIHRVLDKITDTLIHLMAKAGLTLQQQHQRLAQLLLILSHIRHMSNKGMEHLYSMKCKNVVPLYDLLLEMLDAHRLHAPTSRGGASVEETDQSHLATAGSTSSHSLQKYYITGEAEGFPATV
The assay is described as follows: MVLN assay (estrogen-responsive luciferase reporter transactivation). The format is cell-based. The following applies: for Luciferase activity on coexposure with OHT: OHT 10 nM coexposed with 100 μM PFHxI, 100 μM PFOI, 100 μM PFBDI, 20 μM PFHxDI or 40 μM PFODI; for MVLN assay Relative potency: footnote: ratio of EC50 of E2 to that of test compound, text: based on EC20; for MVLN assay EC20: luciferase activity, 2 days, from Hill slope and EC50; for MVLN assay Maximum induction (%): percentage of the maximum induction (luciferase) of tested compound to that of E2, 2 days exposure. The protocol:
as §1
MVLN assay. The MVLN cell line was kindly provided by J.P. Giesy (Michigan State University, East Lansing, MI, USA). This cell line was stably transfected with the luciferase reporter gene and estrogen-responsive element derived from the Xenopus vitellogenin A2 gene. […] Cells were seeded in the interior 60 wells of a 96-well ViewPlate (Packard Instrument Company, Boston, MA, USA) at a density of 7 × 10^4 cells/well, starved in SF medium for 48 hr, and exposed to test compounds for 2 days. […] Luciferase activity was measured with the LucLite kit (Packard Instruments) according to the manufacturer’s protocol. We measured luminescence by microplate reader (Varioskan Flash) and integrated the luminescence signal for 10 sec. Total protein content was measured by the Bradford assay (Tiangen, Beijing, China) to normalize luminescent units. The results are given as relative luminescent unit per microgram protein. The maximal induction of positive control (corrected for solvent control, 0.1–0.2% ethanol) was set as 100%, and the responses of other chemicals were converted to a percentage of the maximum level. Three replicates were used in each experiment. The cytotoxicity of tested chemicals was examined by WST-1 kit in parallel and routinely observed under microscope to identify the exposure concentration range.
as §2, §3, §4
EC50 values were calculated from this nonlinear regression model. EC20 were calculated as
ECx = [x/(100 – x)]^(1/Hill slope) × EC50, [2]

Another assay concerns EGR3. The assay is described as follows: Expression of estrogen-responsive gene EGR3 (quantitative RT-PCR). Format: cell-based, Human. The following applies: MCF-7 cells, 48 hr, vs 0.1% ethanol; 50 μM PFBI, PFHxI, PFOI, PFBDI, PFOA, PFOC, PFOB, 1-iodohexane, 4:2 FTI, 6:2 FTI; 40 μM PFDI, PFDoI, PFODI, 8:2 FTI, 10:2 FTI; 20 μM PFHxDI; 100 pM E2. As to the method: RNA isolation and reverse transcription polymerase chain reaction (RT-PCR). MCF-7BUS cells were seeded in six-well plates at the density of 1.0 × 10^6 cells per well, starved in SF medium for 48 hr, and exposed to test compounds for 48 hr. First, cells were rinsed twice with cold phosphate-buffered saline, and total RNA was isolated using Trizol reagent (Invitrogen Inc., Carlsbad, CA, USA) following the manufacturer’s protocol. The 260 nm and 280 nm absorbance reading of total RNA was performed using a Nanodrop spectrophotometer (Thermo Scientific, Waltham, MA, USA). The concentration of RNA was quantified by the reading at 260 nm.
We used a two-step quantitative RT-PCR to quantify gene expression. Total RNA was converted to cDNA using M-MLV (Moloney murine leukemia virus) reverse transcriptase (Promega, Madison, WI, USA) with oligo dT(15), following the manufacturer’s instructions. The final cDNA solution was diluted five times with DNase/RNase-free water (Gibco). Quantitative PCR was performed with a Stratagene MX3005 thermal cycler (Stratagene, La Jolla, CA, USA). PCR reaction mixtures (25 μL) contained 12.5 μL GoTaq Green Master Mix (Promega), 2 μL diluted cDNA, and 0.2 μM sense/antisense primers. The thermal cycle was 5 min at 95°C, followed by 45 cycles of 15 sec at 95°C, 30 sec at 55°C, and 30 sec at 72°C. The primer sequences of early growth response protein 3 (EGR3) were derived from [Terasaka et al. (2004)]. We designed the primers of internal gene β-actin and trefoil factor 1 (TFF1; pS2) with Primer Premier 5 software (Premier Biosoft International, Palo Alto, CA, USA). The primer sequences were as follows: for β-actin (NM_001101), 5´-CACTCT[…]TCCTTCC-3´ (forward) and 5´-[…][…]-3´ (reverse); for EGR3 (NM_004430), 5´-CCATGATTC[…]-3´ (forward) and 5´-GTGGATCTGCTTGTCTTTGAATG-3´ (reverse); and for TFF1 (NM_003225), 5´-AGAAGCG […]-3´ (forward) and 5´-[…][…]-3´ (reverse). The quantification of target gene expression was based on a comparative cycle threshold (Ct) value. We normalized the expression level of each target gene to its reference gene β-actin. The fold change of the target genes was analyzed by the 2^−ΔΔCt method ([Livak and Schmittgen 2001]). We used melting curve analysis and agarose gel electrophoresis to verify the correct PCR products.

Setting [1] is: within the tested concentration ranges.

With `FC(F)(I)C(F)(F)C(F)(F)C(F)(F)I` [PFBDI, Octafluoro-1,4-diiodobutane], in the assay on MCF-7BUS cells, the negative logarithm of the EC50 (pEC50) is 5.84, the “E-screen Maximum induction (%)” value came to 97% and the “E-screen Relative potency” value was 2.2 × 10^–6. For the same compound, at ER, the negative-log EC50 (pEC50) was 4.53, the “Luciferase activity on coexposure with OHT” value (from here on “Luciferase activity”) is “marked reduction of luciferase activity”, the “MVLN assay Relative potency” value is reported as 0.3 × 10^–6 and the “MVLN assay EC20” value amounted to 13800 nM. In addition, the “MVLN assay Maximum induction (%)” value at ER was found to be 21%. Also, the “EGR3 mRNA expression, fold up-regulation” value with EGR3 worked out at 2.4 fold.
In the case of `FC(F)(F)C(F)(F)C(F)(F)C(F)(F)CCI` [4:2 FTI, 1H,1H,2H,2H-perfluorohexyl iodide], the “E-screen Maximum induction (%)” value with MCF-7BUS cells is recorded as “NDd (The maximum relative proliferation effect was < 7%)”. Besides, the “MVLN assay Maximum induction (%)” value on ER is “NDe (The maximum relative luciferase activity was < 5%)”.
Regarding `FC(F)(F)C(F)(F)C(F)(F)C(F)(F)C(F)(F)C(F)(F)C(F)(F)C(F)(F)I` [PFOI, 1-iodoperfluorooctane], in the assay with MCF-7BUS cells, the negative-log EC50 (pEC50) is 5.94, the “E-screen Maximum induction (%)” value is 101% and the “E-screen Relative potency” value is 2.7 × 10^–6. Besides, the “Proliferation / estrogenic effect in the E-screen assay (in words)” value in the assay on MCF-7BUS cells (setting [1]) was “produced full concentration–response curves”. In addition, on ER, the pEC50 was 4.45, the “Luciferase activity” value is “marked reduction of luciferase activity”, the “MVLN assay Relative potency” value is 0.2 × 10^–6 and the “MVLN assay EC20” value worked out at 20400 nM. Also, at ER, the “MVLN assay Maximum induction (%)” value was 25%. Also, on ER (setting [1]), the “Luciferase induction / estrogenic effect in the MVLN assay (in words)” value was “induced luciferase activity in a dose-related manner”. Moreover, the “EGR3 mRNA expression, fold up-regulation” value in the assay with EGR3 stood at 3.6 fold.
`FC(F)(I)C(F)(F)C(F)(F)C(F)(F)C(F)(F)C(F)(F)I` [PFHxDI, Dodecafluoro-1,6-diiodohexane]: in the assay with MCF-7BUS cells, the negative logarithm of the EC50 (pEC50) was 8.12, the “E-screen Maximum induction (%)” value stood at 100% and the “E-screen Relative potency” value is reported as 4.2 × 10^–4. In addition, on ER, the negative-log EC50 (pEC50) is 5.95, the “Luciferase activity” value is “marked reduction of luciferase activity”, the “MVLN assay Relative potency” value was 1.1 × 10^–5 and the “MVLN assay EC20” value came to 380 nM. In addition, the “MVLN assay Maximum induction (%)” value on ER was determined as 73%. For the same compound, the “EGR3 mRNA expression, fold up-regulation” value with EGR3 is 9.1 fold.
Take `FC(F)(F)C(F)(F)C(F)(F)C(F)(F)C(F)(F)C(F)(F)CCI` [6:2 FTI, 1H,1H,2H,2H-perfluorooctyl iodide]: the “E-screen Maximum induction (%)” value with MCF-7BUS cells is listed as “NDd (The maximum relative proliferation effect was < 7%)”. On ER, the “MVLN assay Maximum induction (%)” value is recorded as “NDe (The maximum relative luciferase activity was < 5%)”.
The like results for `FC(F)(F)C(F)(F)C(F)(F)C(F)(F)C(F)(F)C(F)(F)C(F)(F)C(F)(F)CCI` [8:2 FTI, 1H,1H,2H,2H-perfluorodecyl iodide] were, in that order, “NDd (The maximum relative proliferation effect was < 7%)” and “NDe (The maximum relative luciferase activity was < 5%)”.
In the case of `FC(F)(I)C(F)(F)C(F)(F)C(F)(F)C(F)(F)C(F)(F)C(F)(F)C(F)(F)I` [PFODI, Hexadecafluoro-1,8-diiodooctane], in the assay with MCF-7BUS cells, the negative logarithm of the EC50 (pEC50) was 7.36, the “E-screen Maximum induction (%)” value is on record as 105% and the “E-screen Relative potency” value is recorded as 7.2 × 10^–5. Besides, at ER, the pEC50 is 5.54, the “Luciferase activity” value was “marked reduction of luciferase activity”, the “MVLN assay Relative potency” value is 3.8 × 10^–6 and the “MVLN assay EC20” value was found to be 1070 nM. Besides, the “MVLN assay Maximum induction (%)” value on ER turned out to be 38%. In the assay with EGR3, the “EGR3 mRNA expression, fold up-regulation” value is 11.2 fold.
On to `FC(F)(F)C(F)(F)C(F)(F)C(F)(F)C(F)(F)C(F)(F)C(F)(F)C(F)(F)C(F)(F)C(F)(F)CCI` [10:2 FTI, 1H,1H,2H,2H-perfluorododecyl iodide], for which the “E-screen Maximum induction (%)” value in the assay with MCF-7BUS cells is “NDd (The maximum relative proliferation effect was < 7%)”. The “MVLN assay Maximum induction (%)” value on ER is “NDe (The maximum relative luciferase activity was < 5%)”.
For the compound `C[C@]12CC[C@@H]3c4ccc(O)cc4CC[C@H]3[C@@H]1CC[C@@H]2O` [E2, 17β-estradiol, reference compound], the pEC50 with MCF-7BUS cells (MCF-7BUS proliferation, 6 days) was 11.51. Besides, the “E-screen Maximum induction (%)” value in the assay on MCF-7BUS cells is on record as 100%.

These data come from publication PMC3261944, “The in Vitro Estrogenic Activities of Polyfluorinated Iodine Alkanes” (Environmental Health Perspectives, 2011).
